Test results published in patent publication US20050032873A1, “3-Amino chroman and 2-amino tetralin derivatives” (Wyeth, priority 2003, published 2005).
Counter-ions that a name gives are not always drawn.

Structure (SMILES)	melting point
C[C@@H](CCN(C1CCC1)[C@@H]1COc2c(F)ccc(C(N)=O)c2C1)c1c[nH]c2ccc(F)cc12 (as salt: hydrochloride) [Compound 153b, (3S)-3-{cyclobutyl[(3S)-3-(5-fluoro-1H-indol-3-yl)butyl]amino}-8-fluorochromane-5-carboxamide]	162 to 168 °C
COc1cccc2c1CC(N(CCCc1c[nH]c3ccccc13)C1CCC1)CO2 (stereo not shown) (as salt: hydrochloride) [Compound 44, N-cyclobutyl-N-[3-(1H-indol-3-yl)propyl]-N-(5-methoxy-3,4-dihydro-2H-chromen-3-yl)amine]	113 to 117 °C
COc1cccc2c1CC(N(CCCc1c[nH]c3ccc(F)cc13)C1CCC1)CO2 (stereo not shown) (as salt: hydrochloride) [Compound 34, N-cyclobutyl-N-[3-(5-fluoro-1H-indol-3-yl)propyl]-5-methoxychroman-3-amine]	70.5 °C (dec.)
NC(=O)c1ccc(F)c2c1CC(N(CCCc1c[nH]c3ccc(F)cc13)C1CCC1)CO2 (single isomer, unassigned; (+)) (as salt: hydrochloride) [Compound 4a, (+)-3-{cyclobutyl[3-(5-fluoro-1H-indol-3-yl)propyl]amino}-8-fluorochromane-5-carboxamide]	129 °C (dec.)
CCCN(CCCc1c[nH]c2ccc(F)cc12)C1COc2c(F)ccc(C(N)=O)c2C1 (single isomer, unassigned; (-)) (as salt: hydrochloride) [Compound 2a, (−)-8-fluoro-3-[[3-(5-fluoro-1H-indol-3-yl)propyl](propyl)amino]-3,4-dihydro-2H-chromene-5-carboxamide]	126 °C (dec.)
COc1cccc2c1CC(N(CCCc1c[nH]c3ccc(F)cc13)CC1CCC1)CO2 (stereo not shown) (as salt: hydrochloride) [Compound 42, N-(cyclobutylmethyl)-N-[3-(5-fluoro-1H-indol-3-yl)propyl]-N-(5-methoxy-3,4-dihydro-2H-chromen-3-yl)amine]	115 °C (dec.)
COc1cccc2c1CC(N[C@H]1CC[C@H](c3c[nH]c4ccc(F)cc43)CC1)CO2 (relative stereo) (as salt: hydrochloride) [Compound 181b, trans-N-[4-(5-fluoro-1H-indol-3-yl)cyclohexyl]-5-methoxychroman-3-amine]	265 °C (dec.)
COc1cccc2c1CC(N(CCCc1cn(C)c3ccc(F)cc13)CC1CC1)CO2 (stereo not shown) (as salt: hydrochloride) [Compound 38, N-(cyclopropylmethyl)-N-[3-(5-fluoro-1-methyl-1H-indol-3-yl)propyl]-N-(5-methoxy-3,4-dihydro-2H-chromen-3-yl)amine]	86 °C (dec.)
NC(=O)c1ccc(F)c2c1CC(N(CCCc1c[nH]c3ccc(Cl)cc13)CC1CC1)CO2 (stereo not shown) (as salt: hydrochloride) [Compound 118, 3-[[3-(5-chloro-1H-indol-3-yl)propyl](cyclopropylmethyl)amino]-8-fluorochromane-5-carboxamide]	150 to 158 °C (dec.)
CNC(=O)c1ccc(F)c2c1CC(NCCCCc1c[nH]c3ccc(F)cc13)CO2 (stereo not shown) (as salt: hydrochloride) [Compound 92, 8-fluoro-3-{[4-(5-fluoro-1H-indol-3-yl)butyl]amino}-N-methylchromane-5-carboxamide]	130 °C (dec.)
COc1ccc2[nH]cc(CCCN(C3CCC3)C3COc4c(F)ccc(C(N)=O)c4C3)c2c1 (stereo not shown) (as salt: hydrochloride) [Compound 107, 3-{cyclobutyl[3-(5-methoxy-1H-indol-3-yl)propyl]amino}-8-fluorochromane-5-carboxamide]	151 to 158 °C (dec.)
NC(=O)c1ccc(F)c2c1CC(NCCCCn1ccc3cccc(F)c31)CO2 (stereo not shown) (as salt: hydrochloride) [Compound 188, 8-Fluoro-3-{[4-(7-fluoro-1H-indol-1-yl)butyl]amino}chromane-5-carboxamide]	166 to 168 °C
NC(=O)c1ccc(F)c2c1CC(NCCCc1c[nH]c3ccc(Cl)cc13)CO2 (stereo not shown) (as salt: hydrochloride) [Compound 114, 3-{[3-(5-chloro-1H-indol-3-yl)propyl]amino}-8-fluorochromane-5-carboxamide]	218 to 221 °C
O=C(NC1CCCC1)c1ccc(F)c2c1CC(N(CCCc1c[nH]c3ccc(F)cc13)C1CCC1)CO2 (stereo not shown) (as salt: hydrochloride) [Compound 66, 3-{cyclobutyl[3-(5-fluoro-1H-indol-3-yl)propyl]amino}-N-cyclopentyl-8-fluorochromane-5-carboxamide]	133 °C (dec.)
CCCN(CCCCc1coc2c(OC)cccc12)C1COc2c(F)ccc(C(N)=O)c2C1 (stereo not shown) (as salt: hydrochloride) [Compound 169, 8-fluoro-3-[[4-(7-methoxy-1-benzofuran-3-yl)butyl](propyl)amino]chromane-5-carboxamide]	99 to 110 °C (dec.)
CCN(CCCCc1c[nH]c2ccc(F)cc12)C1COc2c(F)ccc(C(N)=O)c2C1 (stereo not shown) (as salt: hydrochloride) [Compound 80, 3-{ethyl[4-(5-fluoro-1H-indol-3-yl)butyl]amino}-8-fluorochromane-5-carboxamide]	110 °C (dec.)

Structure (SMILES)	melting point
COc1cccc2c(CCCN(C3CCC3)C3COc4c(F)ccc(C(N)=O)c4C3)c[nH]c12 (stereo not shown) (as salt: hydrochloride) [Compound 102, 3-{cyclobutyl[3-(7-methoxy-1H-indol-3-yl)propyl]amino}-8-fluorochromane-5-carboxamide]	156 to 162 °C (dec.)
NC(=O)c1ccc(F)c2c1OCC(N(CCCCc1c[nH]c3ccc(F)cc13)C1CCC1)C2 (stereo not shown) (as salt: hydrochloride) [Compound 126, 3-{cyclobutyl[4-(5-fluoro-1H-indol-3-yl)butyl]amino}-5-fluorochromane-8-carboxamide]	130 °C (dec.)
CCCN(C1COc2cccc(OC)c2C1)[C@H]1CC[C@H](c2c[nH]c3ccc(F)cc32)CC1 (relative stereo) (as salt: hydrochloride) [Compound 183, trans-N-[4-(5-fluoro-1H-indol-3-yl)cyclohexyl]-5-methoxy-N-propylchroman-3-amine]	159 °C (dec.)
CCN(C(C)CCc1c[nH]c2ccc(F)cc12)C1COc2c(F)ccc(C(N)=O)c2C1 (single isomer, unassigned; (+)) (as salt: hydrochloride) [Compound 16b, (+)-3-{ethyl[3-(5-fluoro-1H-indol-3-yl)-1-methylpropyl]amino}-8-fluorochromane-5-carboxamide]	135 °C (dec.)
N#Cc1ccc2[nH]cc(CCCN(C3CCC3)[C@@H]3COc4c(F)ccc(C(N)=O)c4C3)c2c1 (as salt: hydrochloride) [Compound 97a, (3S)-3-[[3-(5-cyano-1H-indol-3-yl)propyl](cyclobutyl)amino]-8-fluorochromane-5-carboxamide]	170 to 177 °C (dec.)
NC(=O)c1ccc(F)c2c1CC(N(CCCc1c[nH]c3ccc(F)cc13)Cc1ccccc1)CO2 (stereo not shown) (as salt: hydrochloride) [Compound 74, 3-{benzyl[3-(5-fluoro-1H-indol-3-yl)propyl]amino}-8-fluorochromane-5-carboxamide]	142 to 150 °C (dec.)
COc1cccc2c(CCCN(CC3CC3)C3COc4c(F)ccc(C(N)=O)c4C3)c[nH]c12 (stereo not shown) (as salt: hydrochloride) [Compound 103, 3-{(cyclopropylmethyl)[3-(7-methoxy-1H-indol-3-yl)propyl]amino}-8-fluorochromane-5-carboxamide]	152 to 158 °C (dec.)
NC(=O)c1ccc(F)c2c1CC(N(CCCc1c[nH]c3cc(F)ccc13)CC1CC1)CO2 (stereo not shown) (as salt: hydrochloride) [Compound 52a, 3-{(cyclopropylmethyl)[3-(6-fluoro-1H-indol-3-yl)propyl]amino}-8-fluorochromane-5-carboxamide]	123 °C (dec.)
CCCN(CCc1c[nH]c2ccc(F)cc12)C1CCc2cccc(OC)c2C1 (stereo not shown) (as salt: hydrochloride) [Compound 48, N-[2-(5-fluoro-1H-indol-3-yl)ethyl]-N-(8-methoxy-1,2,3,4-tetrahydronaphthalen-2-yl)-N-propylamine]	105 °C (dec.)
CCNC(=O)c1ccc(F)c2c1CC(N(CCCc1c[nH]c3ccc(F)cc13)C1CCC1)CO2 (stereo not shown) (as salt: hydrochloride) [Compound 60, 3-{cyclobutyl[3-(5-fluoro-1H-indol-3-yl)propyl]amino}-N-ethyl-8-fluorochromane-5-carboxamide]	130 °C (dec.)
CNC(=O)c1ccc(F)c2c1C[C@H](N(CCCCc1c[nH]c3ccc(F)cc13)C1CCC1)CO2 (as salt: hydrochloride) [Compound 145a, (3S)-3-{cyclobutyl[4-(5-fluoro-1H-indol-3-yl)butyl]amino}-8-fluoro-N-methylchromane-5-carboxamide]	125 °C (dec.)
NC(=O)c1ccc(F)c2c1CC(N(CCC(=O)c1c[nH]c3ccc(F)cc13)C1CCC1)CO2 (stereo not shown) (as salt: hydrochloride) [Compound 8, 3-{cyclobutyl[3-(5-fluoro-1H-indol-3-yl)-3-oxopropyl]amino}-8-fluorochromane-5-carboxamide]	139 °C (dec.)
CNC(=O)c1ccc(F)c2c1CC(N(CCc1c[nH]c3ccc(F)cc13)C1CCC1)CO2 (stereo not shown) (as salt: hydrochloride) [Compound 87, 3-{cyclobutyl[2-(5-fluoro-1H-indol-3-yl)ethyl]amino}-8-fluoro-N-methylchromane-5-carboxamide]	131 °C (dec.)
CCCN(CCCc1c[nH]c2ccc(F)cc12)[C@@H]1CCc2cccc(OC)c2C1 (as salt: hydrochloride) [Compound 47b, (2R)-N-[3-(5-fluoro-1H-indol-3-yl)propyl]-8-methoxy-N-propyl-1,2,3,4-tetrahydronaphthalen-2-amine]	110 °C (dec.)
NC(=O)c1ccc(F)c2c1CC(N(CCCc1c[nH]c3ccc(F)cc13)CC1CC1)CO2 (single isomer, unassigned; (-)) (as salt: hydrochloride) [Compound 5a, (−)-3-{(cyclopropylmethyl)[3-(5-fluoro-1H-indol-3-yl)propyl]amino}-8-fluorochromane-5-carboxamide]	123 °C (dec.)
